Activity calls are given as the source filed them. Rule as the data show it, for most assays here: actives have a measured EC50 and inactives only a lower limit.
Assays:
H9c2 = experiment: cells; format: functional, cell-based; conditions: Rattus norvegicus, H9c2, Myocardium;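 also: confirmatory concentration-response retest of ultra-high-throughput screening hits for modulation of myocardial damage; cell death induced by hydrogen peroxide oxidative stress; compound pretreatment for 60 min then peroxide exposure for 2 h; potency is for protecting the cells against peroxide damage rather than for killing them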
Paired box protein Pax-8 = Paired box protein Pax-8 (Homo sapiens, UniProt Q06710); experiment: inhibitors of PAX8-driven TPO luciferase reporter, dose response, RMG-I cells, cherry-pick (AID 687027); format: functional, cell-based;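 also: luciferase reporter driven by Pax8 target thyroperoxidase promoter measured by SteadyGlo luminescence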
Paired box protein Pax-8, sequence (Q06710 whole entry): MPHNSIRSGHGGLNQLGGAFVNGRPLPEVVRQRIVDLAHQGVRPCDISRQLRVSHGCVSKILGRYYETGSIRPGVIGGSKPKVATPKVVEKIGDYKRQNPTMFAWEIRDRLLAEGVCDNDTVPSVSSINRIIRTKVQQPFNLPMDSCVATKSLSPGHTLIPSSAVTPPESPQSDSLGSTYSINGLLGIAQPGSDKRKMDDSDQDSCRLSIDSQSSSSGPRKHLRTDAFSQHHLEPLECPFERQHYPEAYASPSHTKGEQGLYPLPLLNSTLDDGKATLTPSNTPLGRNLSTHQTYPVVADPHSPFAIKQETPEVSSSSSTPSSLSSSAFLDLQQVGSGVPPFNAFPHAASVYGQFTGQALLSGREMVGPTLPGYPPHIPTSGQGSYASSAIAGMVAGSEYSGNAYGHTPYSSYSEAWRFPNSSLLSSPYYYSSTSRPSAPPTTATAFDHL

[1] = biological target: T1, Heat shock factor protein 1 (Mus musculus, UniProt P38532); experiment: inhibition of MG132-induced HSE-luciferase signal, confirmation, cell-based, NIH3T3, luminescence, dose retest (AID 2382); format: functional;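 also: NIH3T3 fibroblasts with HSF1-driven luciferase reporter stressed by proteasome inhibitor MG132; luminescence from HSF1-driven luciferase expression after 8 hours of MG132 stress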
T1 sequence (P38532 whole entry): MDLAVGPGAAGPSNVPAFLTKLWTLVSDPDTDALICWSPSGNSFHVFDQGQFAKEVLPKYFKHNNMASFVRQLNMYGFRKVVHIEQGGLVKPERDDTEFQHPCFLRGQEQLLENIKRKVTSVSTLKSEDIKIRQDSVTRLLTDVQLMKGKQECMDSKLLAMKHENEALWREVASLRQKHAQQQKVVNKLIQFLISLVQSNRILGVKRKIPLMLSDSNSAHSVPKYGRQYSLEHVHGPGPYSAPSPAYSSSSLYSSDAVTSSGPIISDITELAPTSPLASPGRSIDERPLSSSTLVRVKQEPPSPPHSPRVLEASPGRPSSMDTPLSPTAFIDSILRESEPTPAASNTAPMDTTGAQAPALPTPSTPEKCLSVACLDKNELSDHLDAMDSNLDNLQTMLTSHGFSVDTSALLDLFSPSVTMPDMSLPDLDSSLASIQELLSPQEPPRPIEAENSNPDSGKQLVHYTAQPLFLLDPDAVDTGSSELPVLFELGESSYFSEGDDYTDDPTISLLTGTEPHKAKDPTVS

[2] = inhibitors of SNCA 5'UTR-driven reporter translation, confirmation, H4 neuroglioma cells, luminescence (AID 1988); format: functional, cell-based
[3] = Luminescence Cell-Based Dose Response HTS to Identify Inhibitors of 5'UTR Stem-Loop Driven Prion Protein mRNA Translation in H4 Neuroglioblastoma Cells. [Related pubchem assays: 1827 (Project Summary), 1813 (Primary HTS)]; format: functional
[4] = inhibitors of firefly luciferase expression or activity, dose response, H4 neuroglioma cells, luminescence (AID 1990); format: functional, cell-based
[5] = Luminescence Cell-Based Dose Confirmation HTS to Identify Inhibitors of Platelet Dense Granule Release. [Related pubchem assays: 1663 (Primary HTS), 1678 (Summary of Project)]; format: functional
[6] = biological target: T1, Heat shock factor protein 1; experiment: HSF1 potentiators in luciferase reporter cells, confirmation, cell-based, NIH3T3, luminescence, dose retest (AID 435004); format: functional;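 also: stress induced by proteasome inhibitor MG132 added 30 min after compound; luciferase reporter driven by HSF1 response element in NIH3T3 cells; actives raise luminescence as potentiators of the MG132 stress response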
[7] = biological target: Luciferin 4-monooxygenase (Photinus pyralis, UniProt P08659); experiment: firefly luciferase enzyme inhibitors, dose response, biochemical, luminescence (AID 1891)
Luciferin 4-monooxygenase, sequence (P08659 whole entry): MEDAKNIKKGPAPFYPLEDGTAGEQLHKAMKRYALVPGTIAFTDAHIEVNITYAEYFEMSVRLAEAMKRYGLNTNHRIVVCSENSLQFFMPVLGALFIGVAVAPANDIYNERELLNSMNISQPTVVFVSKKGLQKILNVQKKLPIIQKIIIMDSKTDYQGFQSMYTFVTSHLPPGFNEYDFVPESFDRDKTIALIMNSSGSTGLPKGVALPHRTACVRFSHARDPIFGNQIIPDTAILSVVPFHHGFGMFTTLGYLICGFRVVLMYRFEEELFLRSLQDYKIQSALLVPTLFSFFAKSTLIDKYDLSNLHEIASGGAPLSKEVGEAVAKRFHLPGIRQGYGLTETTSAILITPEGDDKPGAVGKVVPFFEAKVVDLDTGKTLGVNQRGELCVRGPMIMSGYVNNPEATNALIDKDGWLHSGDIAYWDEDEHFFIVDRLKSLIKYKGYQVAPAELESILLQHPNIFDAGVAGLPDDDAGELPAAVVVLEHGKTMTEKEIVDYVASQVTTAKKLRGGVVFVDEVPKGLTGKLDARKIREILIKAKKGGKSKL

H4 = experiment: Luminescence Cell-Based Dose Response HTS to Identify Activators of 5'UTR Stem-Loop Driven Prion Protein mRNA Translation in H4 Neuroglioblastoma Cells. [Related pubchem assays: 1829 (Project Summary), 1814 (Primary HTS)]; format: functional; conditions: Homo sapiens
[8] = Luminescence Cell-Based Dose Response HTS to Identify Activators of Luciferase Translation or Activity in H4 […] Cells. [Related pubchem assays: 1829 (Project Summary), 1814 (Primary HTS)]; format: functional
cells = format: functional
Streptokinase A = biological target: T2, Streptokinase A (Streptococcus pyogenes serotype M1, UniProt P10520); experiment: S. pyogenes streptokinase expression inhibitors, potency, dose response, plasminogen activation absorbance, OD405 (AID 1914); format: functional, Streptococcus pyogenes M1 GAS;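 also: secreted streptokinase activity via plasminogen activation per viability signal from cell pellet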
T2 sequence (P10520 whole entry): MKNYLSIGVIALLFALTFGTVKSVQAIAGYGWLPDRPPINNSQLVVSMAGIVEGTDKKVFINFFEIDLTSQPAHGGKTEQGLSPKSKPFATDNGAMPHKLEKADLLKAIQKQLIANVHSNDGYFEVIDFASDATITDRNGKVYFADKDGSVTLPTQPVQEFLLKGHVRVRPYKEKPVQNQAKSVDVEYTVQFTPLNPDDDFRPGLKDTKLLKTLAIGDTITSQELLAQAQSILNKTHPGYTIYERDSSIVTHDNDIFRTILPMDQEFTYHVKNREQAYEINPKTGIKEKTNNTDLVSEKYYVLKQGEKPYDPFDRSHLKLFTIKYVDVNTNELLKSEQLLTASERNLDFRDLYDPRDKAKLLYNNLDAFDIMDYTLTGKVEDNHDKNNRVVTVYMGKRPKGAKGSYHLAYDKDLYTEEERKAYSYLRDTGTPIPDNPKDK

[9] = system: Streptococcus sp. 'group A'; experiment: growth inhibition of control SK(-) GAS strain, dose response, counter-screen for streptokinase expression inhibitor project, luminescence, kanamycin, BacTiterGlo, confirmation (AID 1900); format: functional, organism-based
Streptococcus = experiment: Group A Streptococcus viability loss, dose response, counter-screen for streptokinase expression inhibitor project, luminescence, BacTiterGlo (AID 1915); format: functional, organism-based;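 also: potency for reduction of bacterial viability or growth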
[10] = cytotoxicity toward NIH3T3 fibroblasts, dose response, counter-screen, cell-based, ATP luminescence, mouse fibroblasts (AID 2010); format: functional;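 also: cells exposed to compound for about 90 hours before reading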
[11] = inhibitors of intracellular T. cruzi replication, confirmation, NIH3T3 host cells, beta-gal luminescence (AID 2044); format: functional, cell-based;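 also: intracellular parasites grown in NIH/3T3 mouse fibroblasts as host cells; luminescent beta-galactosidase reporter signal from transgenic T. cruzi replicating inside host cells; inhibitors lower the luminescence signal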
Cytochrome P450 3A4 = Cytochrome P450 3A4 (Homo sapiens, UniProt P08684);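 also: CYP3A4 tested as one member of a cytochrome P450 panel screen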
Cytochrome P450 3A4, sequence (P08684 whole entry): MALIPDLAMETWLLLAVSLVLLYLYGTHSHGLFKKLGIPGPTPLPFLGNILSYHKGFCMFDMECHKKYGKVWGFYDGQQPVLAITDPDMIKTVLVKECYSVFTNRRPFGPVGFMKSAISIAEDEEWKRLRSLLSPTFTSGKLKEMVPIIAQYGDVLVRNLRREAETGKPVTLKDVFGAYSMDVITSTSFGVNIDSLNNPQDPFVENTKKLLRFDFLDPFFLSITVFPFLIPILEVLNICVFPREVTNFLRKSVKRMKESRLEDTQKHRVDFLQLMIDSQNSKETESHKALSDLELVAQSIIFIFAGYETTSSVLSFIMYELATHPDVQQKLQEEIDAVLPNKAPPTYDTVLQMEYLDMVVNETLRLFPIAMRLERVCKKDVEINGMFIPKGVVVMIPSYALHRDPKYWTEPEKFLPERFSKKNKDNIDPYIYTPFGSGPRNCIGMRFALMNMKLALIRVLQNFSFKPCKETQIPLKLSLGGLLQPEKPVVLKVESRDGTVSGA

INS1 = experiment: beta cell apoptosis inhibitors, cytokine rescue, dose response, luminescence, retest (AID 449756); format: functional, cell-based; conditions: Rattus norvegicus;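 also: cell death triggered by IL-1 beta plus TNF-alpha plus IFN-gamma mixture; protective hits raise ATP signal compared with cytokine alone wells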
[12] = Luminescence Cell-Based Dose Retest to Confirm Inhibitors of Cancer Stem Cells. [Related pubchem assays (depositor defined):AID2717, AID2721]; format: functional, Homo sapiens; conditions: Homo sapiens

COc1ccc(OCC(O)Cn2c(Nc3cccc(C)c3)nc3c2c(=O)n(C)c(=O)n3C)cc1 (configuration not stated)
IC50 (H9c2): 10.1 µM (active)

C[C@@H]1CCCCO[C@H](CN(C)CC2CCCCC2)[C@H](C)CN([C@H](C)CO)C(=O)c2cc(NS(=O)(=O)c3ccc(Cl)cc3)ccc2O1
AC50 (Paired box protein Pax-8): 5.21 µM (active)

COc1ccc(Nc2nc(C(=O)N3CCc4cc(OC)c(OC)cc4C3)cs2)cc1
IC50 (H9c2): > 79 µM (inactive)

CC(=O)c1ccc(OCC(O)CN2CCN(Cc3ccc4c(c3)OCO4)CC2)cc1 (configuration not stated)
EC50 [1]: > 195 µM (not active)

O=C(COC(=O)CCc1nc(O)c2ccccc2n1)NC(c1ccccc1)c1ccccc1
IC50 (H9c2): > 79 µM (inactive)

c1ccc(N2CCOCC2)c(Nc2nc3ccccc3n3cnnc23)c1
IC50 (H9c2): > 79 µM (inactive)

CC(C)OCCCNC(=O)c1cccc(NC(=O)c2ccccc2)c1
AC50 (Paired box protein Pax-8): 41.6 µM (active)

Cc1ccc(NC(=O)CN(C)C(S)=NC2CC2)cc1
EC50 [2]: > 120 µM (not active) | EC50 [3]: > 120 µM (not active) | EC50 [4]: > 120 µM (not active)

COc1ccccc1NC(=O)N(Cc1ccco1)Cc1cc2ccc(C)c(C)c2nc1O
EC50 [5]: > 112 µM (not active) | EC50 [2]: 11 µM (active) | EC50 [6]: > 260 µM (inactive) | EC50 [3]: 27.6 µM (active) | EC50 [7]: > 112 µM (not active) | EC50 [4]: > 60 µM (not active)

CC(C)(C)OC(=O)C[C@@H]1C/C=C\C[C@@H](CC(=O)N[C@@H](CO)Cc2ccccc2)C(=O)NC[C@@H](c2ccccc2)OC1=O
IC50 (H9c2): 11.1 µM (active)

CN(CC(=O)Nc1cccc(F)c1)C(=O)CCc1nc(O)c2ccccc2n1
IC50 (H9c2): > 79 µM (inactive)

COC(=O)c1ccccc1NC(=O)/C=C/c1cc(OC)c(OC)c(OC)c1
IC50 (H9c2): 10.5 µM (active)

CC(=O)Oc1ccc(C)cc1-n1nc2ccccc2n1
EC50 (H4): 2.63 µM (active) | EC50 [8]: 0.445 µM (active)

CSCCC(c1nnnn1-c1ccc2c(c1)OCCO2)N1CCC(n2c(O)nc3ccccc32)CC1 (configuration not stated)
AC50 (Paired box protein Pax-8): 2.14 µM (active)

COc1cccc(NC(=O)c2cc3ccccc3oc2=O)c1
IC50 (cells): 34.4 µM (active)

Sc1nnc(C2CCCCC2)n1/N=C/c1cccc(Cl)c1Cl
EC50 (Streptokinase A): > 150 µM (not active) | EC50 [9]: 4.7 µM (active) | EC50 [2]: 15.1 µM (active) | EC50 [3]: > 120 µM (not active) | EC50 [4]: 15.2 µM (active) | EC50 (Streptococcus): 7.5 µM (active)

COc1cc2c3c(c1OC)C1(C=CC(=NO)C=C1)CC3N(C(C)=O)CC2 (configuration not stated)
EC50 [2]: > 120 µM (not active) | EC50 [3]: > 120 µM (not active) | EC50 [4]: > 120 µM (not active)

CC(C)(C)c1ccc(/C=N/N2C(=O)CSC2=S)cc1
EC50 [1]: 44.1 µM (active)

CCN(CC)C(=O)c1[nH]cnc1C(=O)NCC(=O)OCc1ccccc1
IC50 (H9c2): 6.99 µM (active)

CCOc1ccc(S(=O)(=O)N2CCC(C(=O)N3CCOCC3)CC2)cc1C
EC50 [2]: > 120 µM (not active) | EC50 [3]: > 120 µM (not active) | EC50 [4]: 16.4 µM (active)

O=C(Nc1ccc2c(c1)nc(O)c1ccccc12)C(F)(F)F
IC50 (H9c2): > 79 µM (inactive)

CC(=O)NCc1ccc(-c2csc(NC(=O)CCc3nc(O)c4ccccc4n3)n2)s1
IC50 (H9c2): > 79 µM (inactive)

O=C(OCC(=O)N1CCc2ccccc21)c1ccc([N+](=O)[O-])cc1
IC50 (cells): 7.65 µM (active)

COc1cc2c(cc1OC)CN(C(=O)CNS(=O)(=O)c1ccc(C)c(C)c1)CC2
EC50 [2]: > 120 µM (not active) | EC50 [3]: > 120 µM (not active) | EC50 [4]: > 120 µM (not active)

Cc1ccccc1NC(S)=NNC(=O)c1csc2c1CCC(C)C2 (configuration not stated)
EC50 [1]: < 0.16 µM (active)

CCc1ccccc1N(CC(=O)NCc1ccco1)C(=O)CCC(=O)Nc1ccccn1
EC50 [1]: 35.8 µM (active)

N#C/C(=C/c1ccc(Br)o1)C(N)=O
EC50 [1]: > 195 µM (not active)

CC(C)(C)OC(=O)C[C@H]1C/C=C\C[C@H](CC(=O)N[C@H](CO)Cc2ccccc2)C(=O)N[C@H](Cc2ccccc2)COC1=O
IC50 (H9c2): > 79 µM (inactive)

O=C(COC(=O)c1cccs1)c1ccc2c(c1)OCCO2
EC50 [1]: 0.213 µM (active) | EC50 [8]: < 0.1 µM (active)

Cc1ccc(OCC(=O)Nc2nc(-c3ccccn3)cs2)c(C)c1
EC50 [9]: 1.08 µM (active) | IC50 (H9c2): > 79 µM (inactive) | EC50 (Streptococcus): 4.62 µM (active)

Cn1c(C[S+]([O-])Cc2c(Cl)cccc2Cl)nnc1SCc1ccc(Cl)cc1 (configuration not stated)
EC50 [2]: 13.8 µM (active) | EC50 [3]: > 120 µM (not active) | EC50 [4]: > 120 µM (not active)

CC1CN(C(=O)C(C)N2C(=O)c3ccccc3C2=O)CC(C)O1 (configuration not stated)
EC50 [1]: 33.4 µM (active)

O=C(c1ccco1)N1N=C(c2ccc(Br)cc2)CC1(O)C(F)(F)F (configuration not stated)
AC50 (Paired box protein Pax-8): 27.1 µM (active)

O=C(Cn1[nH]c(=O)c2ccccc2c1=O)N1CC=C(c2ccccc2)CC1
IC50 (H9c2): > 79 µM (inactive)

O=C(CN1CCN(c2ccccn2)CC1)Nc1ccc([N+](=O)[O-])cc1C(=O)Nc1ccccc1F
IC50 (H9c2): > 79 µM (inactive)

O=C(O)C1CCCCC1C(=O)Nc1cccc(C(=O)N2CCCCC2)c1 (configuration not stated)
EC50 [1]: > 195 µM (not active)

COc1cccc(CC2(CO)CCN(S(=O)(=O)c3ccc(OC)cc3OC)CC2)c1
EC50 [1]: > 195 µM (not active)

COc1ccc(/C=N/NC(=O)c2ccncc2)cc1COc1ccc(NC(C)=O)cc1
EC50 [2]: > 120 µM (not active) | EC50 [3]: > 120 µM (not active) | EC50 [4]: > 120 µM (not active)

O=C(NCCN1CCN(C(=O)c2ccc(Br)cc2)CC1)c1ccc(Br)cc1
EC50 [6]: > 260 µM (inactive)

COc1ccc2c(c1)-c1c(sn(-c3ccccc3)c1=S)C(C)(C)N2
EC50 [6]: > 260 µM (inactive)

O=C(Nc1cnn(Cc2ccc(F)cc2)c1)c1cc(-c2ccco2)on1
EC50 [1]: > 195 µM (not active)

Cc1ccc(NC(=O)c2[nH]cnc2C(=O)NCCCCCCNC(=O)c2nc[nH]c2C(=O)Nc2ccc(C)cc2)cc1
IC50 (H9c2): > 79 µM (inactive)

Cc1cccc(-[n+]2c(C)cc(C)c3c(=O)[nH]c(=O)[nH]c32)c1
EC50 [6]: > 260 µM (inactive)

CCOc1ccc(S(=O)(=O)c2c(C(=O)c3ccccc3)cnc3cc4c(cc23)OCCO4)cc1
EC50 [10]: 17.8 µM (active) | EC50 [11]: 2.43 µM (active) | EC50 [6]: > 260 µM (inactive)

Cc1ccc(C)c(OCCn2cc(/C=C(\C#N)C(=O)NCc3ccco3)c3ccccc32)c1
EC50 [2]: 25.1 µM (active) | EC50 [3]: 17.1 µM (active) | EC50 [4]: > 120 µM (not active)

COc1ccc(-c2cc(C(F)(F)F)n3nc(C(=O)N4CCN(C(=O)c5ccco5)CC4)cc3n2)cc1
IC50 (H9c2): 13 µM (active)

CS(=O)(=O)c1nc(-c2ccccc2)cc(-c2ccccc2)c1C#N
AC50 (Cytochrome P450 3A4): 22.4 µM (inconclusive) | EC50 [6]: 16.7 µM (active)

NS(=O)(=O)c1ccc(NC(=O)CN2C(=O)CCC2=O)cc1
EC50 [6]: > 260 µM (inactive)

CCCCNC(=O)c1ccc(Cn2c(=S)[nH]c3c([nH]c4ccc(OC)cc43)c2=O)cc1
AC50 (INS1): 5.01 µM (active) | AC50 [12]: 0.687 µM (active) | EC50 [1]: 3.02 µM (active)

Reference: ChEMBL document CHEMBL1201862, “PubChem BioAssay data set” (2004)
